Test results taken from patent US20070208073A1, “Compositions and methods for treating cardiovascular, cerebrovascular and other vascular disease patients” (priority 2006, published 2007).

Experiment: Clinical treatment of high risk vascular patients: cholesterol panel (LDL, HDL, triglycerides)
Format: in vivo
Conditions: for LDL lowering effects on adding adjunct: adjunct added to statin composition, Niacin 500 mg, ezetimibe 10 mg
Protocol: The protocol of the instant invention was developed for patients that are high risk for a life and/or limb threatening vascular event (MI, CVA, limb/part of limb loss, Aortic dissection/rupture, Renal infarction, etc.) such as DM type I and/or II, CAD, PVD, post MI, post CVA, Hypertriglyceridemia, Hypercholesterolemia, AAA, etc.
It is generally acknowledged that a goal for a DM/CAD patient is to have a LDL cholesterol level less than 70 mg/dL (National Cholesterol Education Program Interim Report Guidelines).
Generally, a patient should start with a low dose of one statin, the dose should then be titrated up to half a maximal dose (titrate means to start a patient at the lowest dose and increase the dose monthly based on having a patient that is less than 3× normal levels for the LFTs, the LDL cholesterol level is not to goal, and there is no positive change in signs, symptoms or studies to evaluate vascular function per disease state). At that point, the patient should be evaluated to see if the LDL cholesterol level is near the goal. If the patient is near the goal, adjuncts should be given to see if the LDL cholesterol level can be further lowered. If the patient is not near the LDL cholesterol goal after titration up to half a maximal dose, the dose of the initial statin should be reduced and a low dose second statin from the other group should be added to the regimen (i.e., if the initial statin is a hydrophilic statin, the second statin should be a lipophilic statin; and vice versa). The second statin level should be titrated up to a half maximal dose if upon taking the statin from the other group (i.e., the second statin), the LDL cholesterol level goal is still not attained. If one is near or at the LDL cholesterol level goal before or after titration of the second statin, the adjuncts can be added to further reduce the LDL cholesterol level.

SMILES	LDL lowering effects on adding adjunct	HDL up (niacin 500 mg a day with the composition of statins)	boost to the HDL levels (niacin 500 mg to 750 mg a day, adult, with two-statin composition)
O=C(O)c1cccnc1 [niacin]	amplified	at least 10%	≥ 10%
O=C1[C@H](CC[C@H](O)c2ccc(F)cc2)[C@@H](c2ccc(O)cc2)N1c1ccc(F)cc1 [ezetimibe]	amplified		
